In patent US8388986B2, “Use of cationic surfactants in cosmetic preparations” (priority 2001, dated 2013):

What was measured:
[1] = tested on: inoculum mixture; assay: preservative efficacy (Antimicrobial Effectiveness Testing USP 24th Edition), 28 days' check; format: cell-based; details: 0.20 g of LAE
Procedure: (§1) This assay consists of the contamination of the protecting formulations with an inoculum mixture of 10^8 cfu/mL concentration, for each of the microorganisms, and the determination of the number of viable cells in the time. This inoculum mixture is composed of the following microorganisms:
(§2) The cosmetic composition to be analysed is divided into sterile containers with 50 g of product for each flask. Each container is inoculated with 0.5 mL of inoculum (10^8 cfu/mL). The target concentration is 10^6 cfu/mL, approximately. All the containers are kept at a temperature between 20-25° C. and are protected from light.
(§3) The level of the microbial contamination is checked at 0 hours, 7 days, 14 days and 28 days. The number of colonies is evaluated by dilution in buffer peptone with the appropriate neutraliser agent of the preservative. The culture media used for counting the microorganisms are: Soya triptone (35-37° C., 48 hours) for the determination of bacteria; Sabouraud agar with chloramphenicol for fungi and yeast (25° C., 3-5 days).
(§4) According to Antimicrobial Effectiveness Testing USP 24th Edition, 1999 (pp. 1809-1811), an antimicrobial preservative is considered to be effective in topically used products made with aqueous bases or vehicles, non-sterile nasal products and emulsions, including those applied to mucous membranes, if: • Not less than 2.0 logarithm reduction from the initial calculated bacteria's count is reached at 14 days and no increase from the 14 days' count at 28 days is detected; and • No increase from the initial calculated count of yeast and moulds is observed.

[2] = tested on: Yeast; assay: preservative efficacy (Antimicrobial Effectiveness Testing USP 24th Edition) in cosmetic formulations; format: cell-based, Candida albicans ATCC 10231; details: 0.20 g of LAE
Procedure: as §1, §2, §3, §4

In the case of `CCCCCCCCCCCC(=O)N[C@@H](CCCN=C(N)N)C(=O)OCC.Cl` [LAE, ethyl ester of the lauramide of the arginine monohydrochloride], the “count at 28 days against the 14 days' count” value (from here on “count at 28 days”) ([1]; Example 1, oil-in-water emulsion with non-ionic surfactant) is reported as “no increase”, the “count at 28 days” value ([1]; Example 2, oil-in-water emulsion with an ionic emulsifier) is reported as “no increase” and the “count at 28 days” value ([1]; Example 3, water in oil emulsion with non-ionic emulsifiers) is reported as “no increase”. For the same compound, the “count at 28 days” value ([1]; Example 4, aqueous solution with a surfactants' mixture (bath gels, disodium cocoamfoacetate)) was “no increase”, the “count at 28 days” value ([1]; Example 5, aqueous solution with a surfactants' mixture (bath gels, disodium lauryl sulfosuccinate)) was “no increase” and the “count at 28 days” value ([1]; Example 6, hydroalcoholic gel (after-shaving lotions)) was “no increase”. The “count at 28 days” value ([1]; Example 7, facial tonic) was “no increase”, the “count at 28 days” value ([1]; Example 8, mask-up cleaner) was “no increase” and the “count at 28 days” value ([1]; Example 9, fluid oil-in-water emulsion with non-ionic surfactants (body oil)) was “no increase”. For the same compound, the “count at 28 days” value ([1]; Example 10, toothpaste formulation) was “no increase”, the “count at 28 days” value ([1]; Example 11, aqueous solution with surfactants (shampoos)) was “no increase” and the “count at 28 days” value ([1]; Example 12, oil-in-water emulsion with non-ionic surfactants (face cream)) was “no increase”. The “count at 28 days” value ([1]; Example 13, oil-in-water emulsion with non-ionic surfactants (sun protector, polysorbate 60)) was “no increase”, the “count at 28 days” value ([1]; Example 14, oil-in-water emulsion with non-ionic surfactants (sun protector, cetyl dimethicone copolyol)) was “no increase” and the “count at 28 days” value ([1]; Example 15, emulsion for hands care) was “no increase”. The “viable count With LAE” value ([2]; Example 1, oil-in-water emulsion with non-ionic surfactant, 7 days) was 9.5 · 10^2 cfu/mL, the “viable count With LAE” value ([2]; Example 1, oil-in-water emulsion with non-ionic surfactant, 14 days) was 4.0 · 10^2 cfu/mL and the “viable count With LAE” value ([2]; Example 1, oil-in-water emulsion with non-ionic surfactant, Initial) was 5.6 · 10^5 cfu/mL. For the same compound, the “viable count With LAE” value ([2]; Example 2, oil-in-water emulsion with an ionic emulsifier, 7 days) was 1.0 · 10^2 cfu/mL, the “viable count With LAE” value ([2]; Example 2, oil-in-water emulsion with an ionic emulsifier, 14 days) was 1.0 · 10^2 cfu/mL and the “viable count With LAE” value ([2]; Example 2, oil-in-water emulsion with an ionic emulsifier, Initial) was 3.6 · 10^4 cfu/mL. The “viable count With LAE” value ([2]; Example 3, water in oil emulsion with non-ionic emulsifiers, 7 days) was <9.9 · 10^1 cfu/mL, the “viable count With LAE” value ([2]; Example 3, water in oil emulsion with non-ionic emulsifiers, 14 days) was <9.9 · 10^1 cfu/mL and the “viable count With LAE” value ([2]; Example 3, water in oil emulsion with non-ionic emulsifiers, Initial) was 7.0 · 10^4 cfu/mL. For the same compound, the “viable count With LAE” value ([2]; Example 4, aqueous solution with a surfactants' mixture (bath gels, disodium cocoamfoacetate), 7 days) was <9.9 · 10^1 cfu/mL, the “viable count With LAE” value ([2]; Example 4, aqueous solution with a surfactants' mixture (bath gels, disodium cocoamfoacetate), 14 days) was <9.9 · 10^1 cfu/mL and the “viable count With LAE” value ([2]; Example 4, aqueous solution with a surfactants' mixture (bath gels, disodium cocoamfoacetate), Initial) was 4.6 · 10^4 cfu/mL. The “viable count With LAE” value ([2]; Example 5, aqueous solution with a surfactants' mixture (bath gels, disodium lauryl sulfosuccinate), 7 days) was <9.9 · 10^1 cfu/mL, the “viable count With LAE” value ([2]; Example 5, aqueous solution with a surfactants' mixture (bath gels, disodium lauryl sulfosuccinate), 14 days) was <9.9 · 10^1 cfu/mL and the “viable count With LAE” value ([2]; Example 5, aqueous solution with a surfactants' mixture (bath gels, disodium lauryl sulfosuccinate), Initial) was 3.6 · 10^4 cfu/mL. For the same compound, the “viable count With LAE” value ([2]; Example 6, hydroalcoholic gel (after-shaving lotions), 7 days) was 1.6 · 10^2 cfu/mL, the “viable count With LAE” value ([2]; Example 6, hydroalcoholic gel (after-shaving lotions), 14 days) was <9.9 · 10^1 cfu/mL and the “viable count With LAE” value ([2]; Example 6, hydroalcoholic gel (after-shaving lotions), Initial) was 4.2 · 10^4 cfu/mL. For the same compound, the “viable count With LAE” value ([2]; Example 7, facial tonic, 7 days) was 1.1 · 10^2 cfu/mL, the “viable count With LAE” value ([2]; Example 7, facial tonic, 14 days) was <9.9 · 10^1 cfu/mL and the “viable count With LAE” value ([2]; Example 7, facial tonic, Initial) was 1.2 · 10^4 cfu/mL. For the same compound, the “viable count With LAE” value ([2]; Example 8, mask-up cleaner, 7 days) was 1.8 · 10^2 cfu/mL, the “viable count With LAE” value ([2]; Example 8, mask-up cleaner, 14 days) was <9.9 · 10^1 cfu/mL and the “viable count With LAE” value ([2]; Example 8, mask-up cleaner, Initial) was 7.2 · 10^4 cfu/mL. The “viable count With LAE” value ([2]; Example 9, fluid oil-in-water emulsion with non-ionic surfactants (body oil), 7 days) was 2.3 · 10^2 cfu/mL, the “viable count With LAE” value ([2]; Example 9, fluid oil-in-water emulsion with non-ionic surfactants (body oil), 14 days) was <9.9 · 10^1 cfu/mL and the “viable count With LAE” value ([2]; Example 9, fluid oil-in-water emulsion with non-ionic surfactants (body oil), Initial) was 7.2 · 10^4 cfu/mL. The “viable count With LAE” value ([2]; Example 10, toothpaste formulation, 7 days) was 1.2 · 10^2 cfu/mL, the “viable count With LAE” value ([2]; Example 10, toothpaste formulation, 14 days) was <9.9 · 10^1 cfu/mL and the “viable count With LAE” value ([2]; Example 10, toothpaste formulation, Initial) was 4.2 · 10^4 cfu/mL. For the same compound, the “viable count With LAE” value ([2]; Example 11, aqueous solution with surfactants (shampoos), 7 days) was 1.2 · 10^2 cfu/mL, the “viable count With LAE” value ([2]; Example 11, aqueous solution with surfactants (shampoos), 14 days) was <9.9 · 10^1 cfu/mL and the “viable count With LAE” value ([2]; Example 11, aqueous solution with surfactants (shampoos), Initial) was 4.2 · 10^4 cfu/mL. The “viable count With LAE” value ([2]; Example 12, oil-in-water emulsion with non-ionic surfactants (face cream), 7 days) was 9.2 · 10^2 cfu/mL, the “viable count With LAE” value ([2]; Example 12, oil-in-water emulsion with non-ionic surfactants (face cream), 14 days) was <9.9 · 10^1 cfu/mL and the “viable count With LAE” value ([2]; Example 12, oil-in-water emulsion with non-ionic surfactants (face cream), Initial) was 3.2 · 10^4 cfu/mL. The “viable count With LAE” value ([2]; Example 13, oil-in-water emulsion with non-ionic surfactants (sun protector, polysorbate 60), 7 days) was 4.2 · 10^2 cfu/mL, the “viable count With LAE” value ([2]; Example 13, oil-in-water emulsion with non-ionic surfactants (sun protector, polysorbate 60), 14 days) was <9.9 · 10^1 cfu/mL and the “viable count With LAE” value ([2]; Example 13, oil-in-water emulsion with non-ionic surfactants (sun protector, polysorbate 60), Initial) was 3.8 · 10^4 cfu/mL. For the same compound, the “viable count With LAE” value ([2]; Example 14, oil-in-water emulsion with non-ionic surfactants (sun protector, cetyl dimethicone copolyol), 7 days) was 4.5 · 10^2 cfu/mL and the “viable count With LAE” value ([2]; Example 14, oil-in-water emulsion with non-ionic surfactants (sun protector, cetyl dimethicone copolyol), 14 days) was <9.9 · 10^1 cfu/mL.
